From PubChem BioAssay (NCI)
Values joined by “and” are separate entries in the source; they are usually repeats but may differ in a detail not shown here. Equal values may be shown once.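 These data come from cells grown in 96-well plates and exposed to compound for 48 hours at five concentrations. GI50: concentration for 50% inhibition of growth. TGI: total growth inhibition.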

Experiments:
Experiment in all cases: inhibition of tumour cell growth, NCI panel, 48 h
MCF7 breast = system: MCF7 breast
UO-31 renal = system: UO-31 renal
NCI-H460 lung = system: NCI-H460 lung
COLO 205 colon = system: COLO 205 colon
NCI-H226 lung = system: NCI-H226 lung
HOP-92 NSCLC = system: HOP-92 NSCLC
OVCAR-3 ovarian = system: OVCAR-3 ovarian
SR leukemia = system: SR leukemia
SF-295 CNS = system: SF-295 CNS
TK-10 renal = system: TK-10 renal

Structure (SMILES)	GI50 (MCF7 breast) [µM]	TGI (MCF7 breast) [µM]	GI50 (UO-31 renal) [µM]	TGI (UO-31 renal) [µM]	GI50 (NCI-H460 lung) [µM]	TGI (NCI-H460 lung) [µM]	GI50 (COLO 205 colon)	TGI (COLO 205 colon)	GI50 (NCI-H226 lung) [µM]	TGI (NCI-H226 lung) [µM]	GI50 (HOP-92 NSCLC) [µM]	TGI (HOP-92 NSCLC) [µM]	GI50 (OVCAR-3 ovarian) [µM]	TGI (OVCAR-3 ovarian) [µM]	GI50 (SR leukemia) [µM]	TGI (SR leukemia) [µM]	GI50 (SF-295 CNS)	TGI (SF-295 CNS) [µM]	GI50 (TK-10 renal)	TGI (TK-10 renal) [µM]
COC(=O)/C=C/c1cc(OC(C)=O)c2c(c1)C(C(=O)OC)C(c1ccc(OC(C)=O)c(OC(C)=O)c1)O2 (configuration not stated)	0.0353	48.6	0.99	> 72.3	1.03	13.6	3.43 µM	> 50.6 µM	3.68	23.2	0.35	24.8	0.0374	15.8	0.0303	30.4	0.222 µM	14.1	8.98 µM	> 93.2
COc1ccc(Cl)cc1NC(=O)c1ccc(NC2=C(Cl)C(=O)N(Cc3ccccc3)C2=O)cc1	5.92	34.3	> 100	> 100	9.41	> 100	> 100 µM	> 100 µM	> 100	> 100	–	–	36.3	> 100	2.76	9.87	36.2 µM	> 100	> 100 µM	> 100
O=C(Nc1nc(-c2c[nH]c3ccccc23)cs1)c1n[nH]c(=O)c2ccccc12	2.01	> 100	8.46	> 67.7	0.451	> 36.8	2.47 µM	> 60.1 µM	12.3	89.8	> 30.6	> 100	13.6	> 83.7	1.61	–	1.55 µM	21.9	14.4 µM	> 100
COc1c(C)c(OCC=C(C)C)cc(CO)c1CO	–	> 100	–	–	–	> 100	–	> 100 µM	–	> 100	–	> 100	–	–	–	> 100	–	> 100	–	> 100
COc1ccc(-c2c(C#N)c(N3CCOCC3)nc3[nH]c(=S)[nH]c(=S)c23)cc1OC	29.4	> 100	82.1	> 100	27.7	> 100	66.8 µM	> 100 µM	18.8	89.6	48.2	> 100	34.6	> 100	11.5	> 100	40.1 µM	> 100	34.5 µM	> 100
COC(=O)c1c(C)cc(OC)c(C/C=C(\C)CCCc2coc(C=C(C)C)c2)c1OC	–	> 100	–	> 100	–	> 100	–	> 100 µM	–	–	–	> 100	–	> 100	–	> 100	–	> 100	–	> 100
CSC[C@H](NC(=O)COc1cccc2cnccc12)C(=O)NC(Cc1ccccc1)C(O)C(=O)N1CSC[C@H]1C(=O)NC(C)(C)C (some centres not stated)	–	> 100	–	> 100	–	> 100	–	> 100 µM	–	> 100	–	–	–	> 100	–	> 100	–	> 100	–	> 100
Cc1cc(C(=O)CSC(=S)SC(C)(C)C)ccc1Cl	–	> 100	–	42.6	–	28.3	–	33.1 µM	–	42.7	–	70.3	–	35.4	–	46.9	–	37.1	–	60
NCCCn1c2c(c3ccc([N+](=O)[O-])cc3c1=O)C(=O)c1cc(I)ccc1-2	< 0.01	0.517	0.0273	1.5	< 0.01	1.31	1.02 µM	2.44 µM	0.786	26.2	0.65	2.25	1.19	2.9	< 0.01	0.929	< 0.0218 µM	1.53	–	–
O=C(O)c1ccc(CNCc2ccccc2)cc1	–	> 100	–	> 100	–	> 100	–	> 100 µM	–	> 100	–	> 100	–	> 100	–	> 100	–	> 100	–	> 100
COc1ccc(/C=C\c2cc(OC)c(OC)c(OC)c2)cc1OCC(=O)O	–	> 100	–	> 94.8	–	> 55.3	–	> 100 µM	–	48.2	–	55.7	–	8.25	–	> 100	–	35.8	–	> 100
COc1c2occc2c(N)c2ccc(=O)oc12	–	> 100	–	> 100	–	> 100	–	> 100 µM	–	> 100	–	> 100	–	> 100	–	> 100	–	> 100	–	> 100
COc1ccc(CNc2c3ccccc3nc3ccccc23)cc1F	2.11	5.4	1.49	6.15	3.15	10.4	2.01 µM	5.64 µM	2.85	10.4	1.96	7.61	4.08	13.3	2.49	9.37	2.68 µM	10.4	3.55 µM	15.7
CNc1cc2oc(=O)cc(C)c2cc1C	–	> 100	–	–	–	> 100	–	> 100 µM	–	> 100	–	> 100	–	> 100	–	> 100	–	> 100	–	> 100
CCSc1nc(N=Cc2ccccc2O)c2cn[nH]c2n1	19.9	59.4	61.6	> 100	30.7	> 100	30.7 µM	> 100 µM	17.9	73.9	–	–	13.8	61.2	7.31	> 100	23.9 µM	80.2	9.67 µM	36.6
CNCCCNc1ccnc2cc(Cl)ccc12	23.4	83.8	12.8	47.7	17.9	37.8	12.6 µM	27.4 µM	25.9	87.5	9.51	39.1	27.6	95.5	22.5	70.8	27.1 µM	> 100	18 µM	54.4

Structure (SMILES)	GI50 (MCF7 breast) [µM]	TGI (MCF7 breast) [µM]	GI50 (UO-31 renal) [µM]	TGI (UO-31 renal) [µM]	GI50 (NCI-H460 lung) [µM]	TGI (NCI-H460 lung) [µM]	GI50 (COLO 205 colon)	TGI (COLO 205 colon)	GI50 (NCI-H226 lung) [µM]	TGI (NCI-H226 lung) [µM]	GI50 (HOP-92 NSCLC) [µM]	TGI (HOP-92 NSCLC) [µM]	GI50 (OVCAR-3 ovarian) [µM]	TGI (OVCAR-3 ovarian) [µM]	GI50 (SR leukemia) [µM]	TGI (SR leukemia) [µM]	GI50 (SF-295 CNS)	TGI (SF-295 CNS) [µM]	GI50 (TK-10 renal)	TGI (TK-10 renal) [µM]
NC(=O)c1cc(I)ccc1NC(=O)/C=C/c1ccccc1	0.403	> 42.6	1.77	> 48.9	0.417	3.44	0.318 µM	1.24 µM	1.96	40.3	17	97.7	0.32	1.01	0.419	–	0.326 µM	3.38	2.9 µM	44.1
CN(C)CCN1CCC(Cc2ccccc2)CC1	> 80	> 80	> 80	> 80	> 80	> 80	> 80 µM	> 80 µM	> 80	> 80	41.4	> 80	> 80	> 80	67.3	> 80	> 80 µM	> 80	> 80 µM	> 80
CC(C)=CCC1=C(O)c2ccccc2C(=O)C1=O	21.8	> 100	> 100	> 100	–	> 100	18.4 µM and 52.3 µM and 28.8 µM	37.5 µM and > 100 µM	–	> 100	–	> 100	–	> 100	–	> 100	> 100 µM and 22.7 µM	> 100	> 100 µM and 37.8 µM and 87.1 µM	> 100
COc1nc(=O)n(C2C=CC(=O)O2)cc1F (configuration not stated)	2.3	10.9	5.18	18.3	12.5	28.7	1.71 µM	3.62 µM	16.9	56.6	1.85	11.7	3.26	11.2	1.87	5.86	22.9 µM	66.1	2.64 µM	12.2
CCCCCCn1c(-c2ccc(C(=O)O/N=C(\N)c3ccc4c(c3)OCO4)cc2)nc(-c2ccccc2)c1-c1ccccc1	1.58	3.5	1.28	2.59	2.08	4.57	2.15 µM	5.37 µM	3.47	15.9	1.48	3.3	2.48	7.87	0.28	1.43	1.69 µM	3.35	1.94 µM	3.61
Nc1nc(Cl)nc2c1ncn2C1CC(O)C(CO)O1 (configuration not stated)	–	> 100	–	8.76	–	> 100	–	> 100 µM	–	62.5	–	24.2	–	> 100	5.66	> 100	–	99.9	50.2 µM	> 100
O=C(CNc1ccc(Cl)cc1Cl)Nn1c(-c2ccccc2)nc2ccccc2c1=O	–	27.4	–	48.4	–	30.5	–	36.1 µM	–	58.3	–	22.7	–	31.3	–	> 100	–	30.1	–	36.1
CNc1nc(N)nc(Nc2ccc(I)cc2)c1N=O	–	> 100	–	> 100	–	> 100	–	> 100 µM	–	–	–	–	–	> 100	–	> 100	–	> 100	–	> 100
c1ccc(C2=NOC(c3ccccc3)N2C23CC4CC(CC(C4)C2)C3)cc1 (configuration not stated)	–	> 10	–	–	–	> 10	–	> 10 µM	–	> 10	–	> 10	–	> 10	–	> 10	–	> 10	–	> 10
COc1cc2c3c(n(C)c(=O)c2cc1OC)-c1cc2c(cc1C3=O)OCO2	–	> 100	–	> 100	–	> 100	–	> 100 µM	–	> 100	–	> 100	–	> 100	–	11.8	–	> 61.3	–	> 100
O=C(CC(=O)Nc1ccccc1)NNC(Sc1ccccc1)c1cc(N=Nc2ccc(Br)cc2)ccc1O (configuration not stated)	–	> 10	–	> 10	–	> 10	–	> 10 µM	–	5.04	–	> 10	–	> 10	–	> 10	–	> 10	–	> 10
COc1cc2c(cc1OCCCN1CCN(CCCOc3cc4c(cc3OC)C(=O)N3CC(F)(F)C[C@H]3C=N4)CC1)N=C[C@@H]1CC(F)(F)CN1C2=O	2.09	20.2	11.4	25.7	2.6	15.6	3.09 µM	10.2 µM	14	39.8	6.14	76.3	3.55	10.6	0.882	11.4	–	–	4.38 µM	12.9
NC(N)=Nc1nc2ccccc2o1	> 100	> 100	79.4	> 100	> 100	> 100	> 100 µM	> 100 µM	> 100	> 100	> 100	> 100	> 100	> 100	> 100	> 100	> 100 µM	> 100	> 100 µM	> 100
COC(=O)C1=CN(CC2=CC(=O)C(C)=CC2=O)C=C(C(=O)OC)C1c1ccccc1OC	24.4	69.8	16.4	31.2	33.7	> 87.7	18.9 µM	38.2 µM	16.4	41.5	9.31	21.9	13.2	26.8	4.01	19.6	24.3 µM	> 55.5	16.7 µM	35.4
CCOc1c(OC)cc(-c2nc3n(n2)C(=O)C(CC)S3)cc1OC (configuration not stated)	–	> 10	–	–	–	> 10	–	> 10 µM	–	> 10	–	–	–	> 10	–	> 10	–	> 10	–	> 10
Nc1c(C(=O)Nc2ccccn2)sc2nc3c(cc12)C(=O)CCC3	0.435	> 100	9.45	> 100	0.596	> 100	0.908 µM	26 µM	3.62	> 100	27.7	> 100	0.792	14.7	2.75	> 100	0.473 µM	> 100	22.3 µM	> 100
